# Reference: patent publication US9221876B2, “Methods for treating kidney disease with fragments of ApoB-100” (Cedars-Sinai Medical Center, priority 2011, dated 2015)
# Entries after “also recorded” stand apart in the source; their conditions may differ. No end group written: not given here.
# Key:
# Type in all cases: in vivo, apoE (−/−) male mice
# TGF-β = TGF-β mRNA expression in kidney; conditions: p210/cBSA/Alum+AngII vs cBSA/Alum+AngII and PBS+AngII; N=9 each; p<0.05
# Text: (§1) (Left): PAI-1. N=5 each, (Right): TGF-β. N=9 each. *p<0.05 vs. p210. p210: immunized with p210/cBSA/Alum+AngII; cBSA: immunized with cBSA/Alum+AngII; PBS: immunized with PBS+AngII.
# (§2) The inventors assessed the effect of p210 immunization on AngII-induced renal inflammatory responses in apoE (−/−) male mice. For the experiments described herein, native p210 peptide (KTTKQ SFDLS VKAQY KKNKH) was conjugated to cationic bovine serum albumin (cBSA) as carrier. Alum was used as an adjuvant. At 7, 10, and 12 weeks of age, male apoE (−/−) mice were subcutaneously injected with 100 μg of p210/cBSA/Alum. As immunization controls, 100 μg of cBSA/Alum, or PBS were injected. At 10 weeks of age after first immunization booster, 1000 ng/Kg/min of AngII was delivered by subcutaneously implanted osmotic pump for 4 weeks (FIG. 1A).
# (§3) At euthanasia, kidney was harvested for quantitative PCR analysis or histological analysis. Data are presented as mean±SEM. Data were analyzed by ANOVA following post-hoc test for multiple group comparison.
# (§4) These anti-hypertensive and renal protective effects are associated with significant reduction of inflammatory cytokines and chemokine gene expression, ROS production mediated by NADPH oxidase, and profibrotic gene expression in kidney. […]
# PAI-1 = PAI-1 mRNA expression in kidney; conditions: p210/cBSA/Alum+AngII vs cBSA/Alum+AngII and PBS+AngII; N=5 each; p<0.05
# Text: as §1, §2, §3, §4
# TNF-α = TNF-α mRNA expression in kidney, quantitative PCR; conditions: p210/cBSA/Alum+AngII vs cBSA/Alum+AngII and PBS+AngII; N=10 each; p<0.05
# Protocol: as §2, §3
# [1] = Serum creatinine level (indicator of renal function), creatinine assay kit, AngII-induced renal damage
# Protocol: as §2
# Serum creatinine (Cr.) (an indicator of renal function) level at 14 weeks of age was assessed by commercially available creatinine assay kit following the manufacture's instruction. […] N: p210=12, cBSA=11, PBS=9.
# [2] = test system: glomerular ROS production; assay: Glomerular ROS (superoxide) production, in situ dihydroethidium (DHE) labeling of frozen kidney sections; conditions: p210/cBSA/Alum+AngII vs cBSA/Alum+AngII and PBS+AngII; N=4 each; p<0.05
# Text: (A) Representative figure of in situ DHE labeling. (B) Densitometric analysis of DHE fluorescence. *p<0.05 vs. p210. N=4 each. p210: immunized with p210/cBSA/Alum+AngII; cBSA: immunized with cBSA/Alum+AngII; PBS: immunized with PBS+AngII.
# as §2
# Superoxide production in kidney was measured by in situ dihydroethidium (DHE) methods with freshly cut frozen sections.
# MCP-1 = MCP-1 mRNA expression in kidney, quantitative PCR; conditions: p210/cBSA/Alum+AngII vs cBSA/Alum+AngII and PBS+AngII; N=8 each; p<0.05
# Protocol: as §2, §3
# [3] = test system: NOX1, a component of NADPH oxidase; assay: NOX1 expression in kidney; conditions: p210/cBSA/Alum+AngII vs cBSA/Alum+AngII and PBS+AngII; N=8 each; p<0.05
# Text: as §1, §2, §3, §4
# [4] = test system: Angiotensin II type 1 receptor (AT1R); assay: AT1R expression in aorta, Western blot with densitometric analysis, after p210 immunization and AngII infusion; conditions: 100 μg p210/cBSA/Alum s.c. at 7, 10, 12 weeks of age; AngII 1000 ng/Kg/min by osmotic pump for 4 weeks; vs cBSA/Alum and PBS; N=6 each
# Text: N=6 in each group. p210: immunized with p210/cBSA/Alum+AngII; cBSA: immunized with cBSA/Alum+AngII; PBS: immunized with PBS+AngII.
# as §2
# IL-6 = IL-6 mRNA expression in kidney, quantitative PCR; conditions: p210/cBSA/Alum+AngII vs cBSA/Alum+AngII and PBS+AngII; N=8 each; p<0.05
# Protocol: as §2, §3
substance,measurement,setting,value
"KTTKQ SFDLS VKAQY KKNKH (KTTKQSFDLSVKAQYKKNKH; also: conjugated to cationic BSA carrier) [Peptide P210, amino acids 3136-3155 of human ApoB-100; tested conjugated to cationic bovine serum albumin (cBSA) as carrier, Alum as adjuvant]",TGF-β mRNA expression in kidney,TGF-β,significantly downregulated; also recorded: significantly reduced
same,PAI-1 mRNA expression in kidney,PAI-1,significantly downregulated; also recorded: significantly reduced
same,TNF-α mRNA expression in kidney,TNF-α,down-regulated; also recorded: significantly reduced
same,Serum Cr.,"[1]; at 14 weeks of age, 100 μg p210/cBSA/Alum s.c. at 7, 10, 12 weeks, AngII infusion 4 weeks, mean±SEM, N p210=12",0.6 ± 0.1 mg/dL
same,Serum creatinine level vs cBSA and PBS groups,"[1]; at 14 weeks of age, p<0.05",significantly lower
same,AngII-induced renal damage,"[1]; p210 immunization, AngII infusion 4 weeks",protected against AngII-induced renal damage; also recorded: significantly attenuated
same,glomerular ROS production (DHE fluorescence),[2],significantly reduced
same,MCP-1 mRNA expression in kidney,MCP-1,down-regulated; also recorded: significantly reduced
same,NOX1 expression in kidney,[3],significantly reduced
same,expression of Angiotensin II type 1 receptor (AT1R) in aorta,[4],significantly decreased
same,IL-6 mRNA expression in kidney,IL-6,down-regulated; also recorded: significantly reduced
